Among the data in US6387849B1, “Herbicidal hydroximic acid derivatives” (BASF Aktiengesellschaft, priority 1997, dated 2002) are melting point values, retold here.

The melting point is the temperature of the solid-liquid transition. For the compound `CO/N=C(\OC)c1cc(-n2c(=O)cc(C(F)(F)F)n(C)c2=O)c(F)cc1Cl` [Compound 4.01, 3-[2-fluoro-4-chloro-5-methoxyimino-(methoxy)methylphenyl]-2,4-dioxo-1-methyl-6-trifluoromethyl-1,2,3,4-tetrahydropyrimidine], the melting point fell in the range of 122 to 124 °C.
